Here are results for 14 compounds from BindingDB's records for doi:10.1021/jm050825p (National Institute of Allergy and Infectious Diseases, 2006).

Test [1] has as its target T1, 3-oxoacyl-[acyl-carrier-protein] synthase 2 (Mycobacterium tuberculosis (strain ATCC 25618 / H37Rv), UniProt P9WQD7).
T1 sequence (P9WQD7 whole entry): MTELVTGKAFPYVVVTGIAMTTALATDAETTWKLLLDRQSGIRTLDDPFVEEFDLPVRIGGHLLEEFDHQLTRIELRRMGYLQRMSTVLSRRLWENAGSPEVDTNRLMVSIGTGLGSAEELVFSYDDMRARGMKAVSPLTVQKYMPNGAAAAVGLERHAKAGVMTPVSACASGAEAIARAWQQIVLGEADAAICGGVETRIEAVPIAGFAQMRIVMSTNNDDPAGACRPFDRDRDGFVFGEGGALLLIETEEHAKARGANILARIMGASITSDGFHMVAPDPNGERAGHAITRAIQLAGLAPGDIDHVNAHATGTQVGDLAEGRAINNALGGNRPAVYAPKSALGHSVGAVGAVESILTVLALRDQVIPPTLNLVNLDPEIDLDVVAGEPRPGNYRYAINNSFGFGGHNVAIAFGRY
The test is described as follows: Inhibitory activity against KasB from Mycobacterium tuberculosis H37Rv.

The target of test [2] is T2, 3-oxoacyl-[acyl-carrier-protein] synthase 3 (Escherichia coli, UniProt C3TDZ2).
T2 sequence (C3TDZ2 whole entry): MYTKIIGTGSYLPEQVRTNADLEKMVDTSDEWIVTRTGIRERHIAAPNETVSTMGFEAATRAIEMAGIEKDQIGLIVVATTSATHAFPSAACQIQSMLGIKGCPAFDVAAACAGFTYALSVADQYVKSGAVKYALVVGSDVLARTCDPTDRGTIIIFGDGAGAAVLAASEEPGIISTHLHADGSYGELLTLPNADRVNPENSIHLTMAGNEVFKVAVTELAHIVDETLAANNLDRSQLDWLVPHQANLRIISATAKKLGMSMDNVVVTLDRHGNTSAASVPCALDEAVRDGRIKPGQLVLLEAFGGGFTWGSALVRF
The experiment in a line: Inhibitory activity against FabH from Escherichia coli ANSI.

In test [3] the target is T3, 3-oxoacyl-[acyl-carrier-protein] synthase 1 (Escherichia coli (strain K12), UniProt P0A953).
T3 sequence (P0A953 whole entry): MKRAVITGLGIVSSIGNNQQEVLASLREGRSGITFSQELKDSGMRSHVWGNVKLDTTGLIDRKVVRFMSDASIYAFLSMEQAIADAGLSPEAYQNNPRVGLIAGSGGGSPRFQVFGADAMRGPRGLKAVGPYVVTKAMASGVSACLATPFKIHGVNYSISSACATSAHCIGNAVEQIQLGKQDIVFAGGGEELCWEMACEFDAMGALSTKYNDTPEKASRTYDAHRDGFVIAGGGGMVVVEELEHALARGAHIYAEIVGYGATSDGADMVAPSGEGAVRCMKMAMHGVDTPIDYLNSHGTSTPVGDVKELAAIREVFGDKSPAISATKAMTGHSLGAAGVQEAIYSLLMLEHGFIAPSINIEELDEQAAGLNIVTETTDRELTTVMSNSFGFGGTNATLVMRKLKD
The experiment in a line: Inhibitory activity against FabB from Escherichia coli ANSI.

Test [4] concerns the target T4, 3-oxoacyl-[acyl-carrier-protein] synthase 3 (Mycobacterium tuberculosis (strain ATCC 25618 / H37Rv), UniProt P9WNG3).
T4 sequence (P9WNG3 whole entry): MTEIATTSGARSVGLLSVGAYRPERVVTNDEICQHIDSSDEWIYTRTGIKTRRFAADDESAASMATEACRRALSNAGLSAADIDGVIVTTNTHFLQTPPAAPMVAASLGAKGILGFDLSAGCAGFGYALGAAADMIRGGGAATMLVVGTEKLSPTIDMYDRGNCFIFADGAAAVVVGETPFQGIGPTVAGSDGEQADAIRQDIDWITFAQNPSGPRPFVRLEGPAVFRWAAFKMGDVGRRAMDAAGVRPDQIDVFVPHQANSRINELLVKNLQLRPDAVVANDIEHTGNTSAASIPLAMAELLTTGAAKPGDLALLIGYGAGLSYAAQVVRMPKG
The experiment in a line: Inhibitory activity against FabH from Mycobacterium tuberculosis H37Rv.

SMILES strings stand for the structures.

As for `CCCCC(CC)CC1(C)SC(=O)C(C)C1=O` (stereo unspecified) [3,5-dimethyl-5-(2-ethylhexyl)-4-hydroxy-5H-thiophen-2-one], the 50% inhibitory concentration (IC50) in test [1], in test [2], in test [3] and in test [4] was above 1000 µM throughout.

On to `COc1cc(CC2(C)SC(=O)C(C)C2=O)cc(OC)c1` (stereo unspecified) [3,5-dimethyl-5-(3,5-dimethoxybenzyl)-4-hydroxy-5H-thiophen-2-one], for which the 50% inhibitory concentration (IC50) in test [1], in test [2], in test [3] and in test [4] was above 1000 µM in each case.

As for `CC1C(=O)SC(C)(Cc2ccc(F)cc2)C1=O` (stereo unspecified) [3,5-dimethyl-5-(4-fluorobenzyl)-4-hydroxy-5H-thiophen-2-one], the IC50 (usually the concentration at which inhibition is half-maximal) in test [1] was above 1000 µM; in test [2] it was above 1000 µM; in test [3] it was above 1000 µM; in test [4], above 100 µM.

In the case of `CCCCCCCC1(C)SC(=O)C(C)C1=O` (stereo unspecified) [3,5-dimethyl-5-heptyl-4-hydroxy-5H-thiophen-2-one], the half-maximal inhibitory concentration (IC50) in test [1], in test [2], in test [3] and in test [4] was above 1000 µM throughout.

Turning to `COc1cccc(CC2(C)SC(=O)C(C)C2=O)c1` (stereo unspecified) [4-Hydroxy-5-(3-methoxy-benzyl)-3,5-dimethyl-5H-thiophen-2-one], the concentration for half-maximal inhibition (IC50) in test [1], in test [2], in test [3] and in test [4] was above 1000 µM throughout.

For `COc1ccc(CC2(C)SC(=O)C(C)C2=O)cc1` (stereo unspecified) [4-Hydroxy-5-(4-methoxy-benzyl)-3,5-dimethyl-5H-thiophen-2-one], the IC50 in test [1], in test [2], in test [3] and in test [4] was above 1000 µM in each case.

Consider `CC1C(=O)SC(C)(Cc2c(Cl)cccc2Cl)C1=O` (stereo unspecified) [5-(2,6-dichlorobenzyl)-3,5-dimethyl-4-hydroxy-5H-thiophen-2-one], for which the half-inhibitory concentration (IC50) in test [1], in test [2], in test [3] and in test [4] was above 1000 µM throughout.

Turning to `CC1C(=O)SC(C)(Cc2ccccc2Cl)C1=O` (stereo unspecified) [5-(2-chlorobenzyl)-3,5-dimethyl-4-hydroxy-5H-thiophen-2-one], the IC50 in test [1], in test [2], in test [3] and in test [4] was above 1000 µM each time.

Turning to `CC1C(=O)SC(C)(Cc2cccc(Cl)c2)C1=O` (stereo unspecified) [5-(3-chlorobenzyl)-3,5-dimethyl-4-hydroxy-5H-thiophen-2-one], the IC50 in test [1], in test [2], in test [3] and in test [4] was above 1000 µM throughout.

As for `CC1C(=O)SC(C)(Cc2ccc(Cl)cc2)C1=O` (stereo unspecified) [5-(4-chlorobenzyl)-3,5-dimethyl-4-hydroxy-5H-thiophen-2-one], the IC50 in test [1] was above 1000 µM; in test [2], above 1000 µM; in test [3], above 1000 µM; in test [4], above 100 µM.

On to `CC1C(=O)SC(C)(Cc2ccc(C(C)(C)C)cc2)C1=O` (stereo unspecified) [5-(4-tert-butylbenzyl)-3,5-dimethyl-4-hydroxy-5H-thiophen-2-one], for which the IC50 in test [1] is above 1000 µM; in test [2], above 1000 µM; in test [3], above 1000 µM; in test [4], above 100 µM.

Turning to `C=CCCC1(C)SC(=O)C(C)C1=O` (stereo unspecified) [5-(but-3-enyl)-3,5-dimethyl-4-hydroxy-5H-thiophen-2-one], the half-inhibitory concentration (IC50) in test [1], in test [2], in test [3] and in test [4] was above 1000 µM in each case.

For the compound `CC1C(=O)SC(C)(CC2CCC2)C1=O` (stereo unspecified) [5-cyclobutylmethyl-3,5-dimethyl-4-hydroxy-5H-thiophen-2-one], the IC50 in test [1], in test [2], in test [3] and in test [4] was above 1000 µM in each case.

In the case of `CC1C(=O)SC(C)(CC2CCCCC2)C1=O` (stereo unspecified) [5-cyclohexylmethyl-3,5-dimethyl-4-hydroxy-5H-thiophen-2-one], the IC50 in test [1], in test [2], in test [3] and in test [4] was above 1000 µM each time.
